This is an account of results in article PMC11099021, “Mycobacterial biotin synthases require an auxiliary protein to convert dethiobiotin into biotin” (Nature Communications, 2024).

One assay concerns the target T1, BioB.ec (Escherichia coli, UniProt P12996).
T1 sequence (P12996 1-346): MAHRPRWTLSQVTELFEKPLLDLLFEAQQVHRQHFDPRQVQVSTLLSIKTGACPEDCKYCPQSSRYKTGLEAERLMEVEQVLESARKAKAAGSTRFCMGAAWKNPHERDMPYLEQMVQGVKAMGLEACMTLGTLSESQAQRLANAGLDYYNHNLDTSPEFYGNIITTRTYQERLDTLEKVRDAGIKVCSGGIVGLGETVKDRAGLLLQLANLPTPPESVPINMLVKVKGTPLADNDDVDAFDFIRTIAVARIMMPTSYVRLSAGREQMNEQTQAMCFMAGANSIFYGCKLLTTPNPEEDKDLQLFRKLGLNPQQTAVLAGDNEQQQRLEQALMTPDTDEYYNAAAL
Description: biotin formation by LC-MS. Type of assay: biochemical. The settings on record: 100 µM DTB, 100 µM SAM; FldA/FNR/NADPH, MtnN; pH 8.0; 37 °C; anaerobic; without BsaP.

For the next assay, the target named is BioB.tb-BsaP (Mycobacterium tuberculosis, UniProt P9WPQ7). Description: biotin formation by LC-MS, Morrison fit. It is filed as biochemical. From the text:
biotin formation by LC-MS, Morrison fit on BioB.tb-BsaP | acidomycin is indeed a potent inhibitor of BioB.tb displaying an inhibition constant Ki of […]

For the next assay, the target named is T2, BsaP (Mycobacterium tuberculosis, UniProt P9WLT6).
T2 chain: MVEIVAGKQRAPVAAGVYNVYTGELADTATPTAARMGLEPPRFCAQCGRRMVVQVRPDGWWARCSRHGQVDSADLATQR

`C[C@@H]1NC(=O)N[C@@H]1CCCCCC(=O)O` [DTB]: the “biotin formation by LC-MS” value on BioB.ec is reported as “No difference in biotin production was observed when BsaP was added to BioB.ec”.
Usually Ki stands for the equilibrium dissociation constant of an inhibitor or competing ligand from its target. A high value points to weaker binding. With `O=C(O)CCCCC[C@@H]1NC(=O)CS1` [acidomycin], on BioB.tb-BsaP, the affinity corresponds to a Ki of 110 nM. In other words, the sub-micromolar range.

B1: BioB (protein)
chain: TQAATRPTNDAGQDGGNNSDILVVARQQVLQRGEGLNQDQVLAVLQLPDDRLEELLALAHEVRMRWCGPEVEVEGIISLKTGGCPEDCHFCSQSGLFASPVRSAWLDIPSLVEAAKQTAKSGATEFCIVAAVRGPDERLMAQVAAGIEAIRNEVEINIACSLGMLTAEQVDQLAARGVHRYNHNLETARSFFANVVTTHTWEERWQTLSMVRDAGMEVCCGGILGMGETLQQRAEFAAELAELGPDEVPLNFLNPRPGTPFADLEVMPVGDALKAVAAFRLALPRTMLRFAGGREITLGDLGAKRGILGGINAVIVGNYLTTLGRPAEADLELLDELQMPLKALNASL
What is called Kd is a measure of binding affinity in units of concentration. Consider B1, for which binding with BsaP was put at a Kd of 950 nM.
